Results on 3 compounds are retold here after patent US20250296960A1, “PEPTIDE COMPOSITIONS AND METHODS OF USE THEREOF” (priority 2022, published 2025).

The target of one data set is T1, human GCGR (Homo sapiens, UniProt P47871).
T1 construct: host or cells: CHO-K1
In words: cAMP assay (HitHunter cAMP) in GCGR-expressing CHO-K1 cells (GCGR+ cells). The data set is classed as cell-based. Summed up: (§1)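 CHO-K1 cells expressing each receptor were plated overnight, then treated with peptide in cAMP assay buffer for 30 min at 37 °C. cAMP was detected by antibody plus detection solution (1 h) and Solution A (3 h), both at room temperature in the dark. Luminescence was the read-out.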
Background: Cyclic AMP is a second messenger, typically raised through Gs and lowered through Gi signalling.

A further data set addresses T2, human GIPR (Homo sapiens, UniProt P48546).
T2 construct: host or cells: CHO-K1
T2 sequence (P48546 22-466): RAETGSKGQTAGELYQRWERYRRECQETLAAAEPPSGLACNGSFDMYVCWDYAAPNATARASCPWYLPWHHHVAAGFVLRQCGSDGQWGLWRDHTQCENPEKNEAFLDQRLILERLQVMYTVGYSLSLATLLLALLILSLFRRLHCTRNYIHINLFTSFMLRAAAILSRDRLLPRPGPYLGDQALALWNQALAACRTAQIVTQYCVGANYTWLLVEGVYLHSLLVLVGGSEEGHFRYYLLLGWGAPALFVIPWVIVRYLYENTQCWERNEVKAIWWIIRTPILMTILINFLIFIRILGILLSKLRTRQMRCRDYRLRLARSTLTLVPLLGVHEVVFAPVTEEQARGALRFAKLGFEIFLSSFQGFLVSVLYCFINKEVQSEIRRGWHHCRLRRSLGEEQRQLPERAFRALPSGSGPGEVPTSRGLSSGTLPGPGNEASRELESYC
Nature of the data set: cAMP assay (HitHunter cAMP) in GIPR-expressing CHO-K1 cells (GIPR+ cells). The data set is classed as cell-based. The procedure, abridged:
as §1

A further data set relates to trypsin. It counts as in vitro ADME. The procedure:
(§2) For the stability against trypsin, the test samples were prepared by mixing stock solutions of peptide and trypsin dissolved in 50 mM PBS (pH 7.8) containing 0.02% PS80 in a weight ratio of 10:1. The test samples were incubated at 37° C. for 180 min. The sampling from test samples was proceeded at the predetermined time points (10, 30, 60, 90, 120, and 180 min) and stopped by 10% TFA solution.
(§3) Analytical HPLC was performed to determine the remaining amount on an ACQUITY Premier system (Waters, USA) with an ACQUITY CSH C18 column (Waters, USA) at 35° C. using 0.1% TFA in water and acetonitrile. The remaining amount was determined as a percentage of the peak area at the sampling time point relative to the peak area of the initial sample.

Data set [1] is classed as in vitro ADME. To be noted: pH 7.8. The procedure:
as §2, §3

Data set [2] is described as follows: In vitro enzymatic stability against FaSSIF/P (pancreatin in FaSSIF, pH 6.5). To be noted: simulated gi fluid. The data set is classed as in vitro ADME.
A further data set deals with T3, human GLP-1R (Homo sapiens, UniProt P43220).
T3 construct: host or cells: CHO-K1
In words: cAMP assay (HitHunter cAMP) in GLP-1R-expressing CHO-K1 cells (GLP-1R+ cells). It counts as cell-based. The procedure, abridged:
as §1

Data set [3] can be described thus: In vivo efficacy in mAMLN (obese and NASH) mice, 4 weeks. As to conditions: after 4 weeks.
A further data set relates to FaSSIF/P. Nature of the data set: In vitro enzymatic stability against FaSSIF/P (pancreatin in FaSSIF, pH 6.5). It counts as in vitro ADME.
A short description of data set [4]: Body weight loss in high fat diet (HFD) mice, 2 weeks. It counts as in vivo. To be noted: 20 nmol/kg s.c. Q2D. Here is the method: This study was conducted to confirm the body weight loss effect and select the peptides to be evaluated in high fat diet (HFD) treated mouse, which is widely used as experimental animal model in obesity and diabetes studies. SEQ ID NOs. The peptides were delivered at 0.02% PS80 in PBS and dosing volume was 10 mL/kg. Body weight changes, blood glucose, and food intake were monitored Q2D. Animals were fasted at least 4 hours prior to blood glucose measurement.

A short description of data set [5]: Intestinal absorption / PK after intraduodenal administration of oral formulation in rats, serum LC-MS/MS. As to conditions: rat, in vivo.

The Cmax is the highest concentration seen after dosing.

SMILES strings stand for the structures. Where two headings read alike, the source gives them in different places. Numbered stars: 1 amine (or outer) side, 2 acyl side, 3 side chain; on linkers, the order of the positions; unused ones are H or OH. Square brackets hold non-standard residues; d marks the D form. Side chains are listed from the residue outwards. Peptide text beside a SMILES is read from it. * marks the point of attachment. Biotin = O=C1N[C@H]2[C@H](CS[C@H]2CCCCC(=O)*)N1; C18 diacid = O=C(O)CCCCCCCCCCCCCCCCC(=O)*; γGlu = O=C(O)[C@H](CCC(=O)[*:2])N[*:1]; AEEA = NCCOCCOCC(=O)O; Aib = CC(C)(N)C(=O)O

T1 sequence (P47871 26-477): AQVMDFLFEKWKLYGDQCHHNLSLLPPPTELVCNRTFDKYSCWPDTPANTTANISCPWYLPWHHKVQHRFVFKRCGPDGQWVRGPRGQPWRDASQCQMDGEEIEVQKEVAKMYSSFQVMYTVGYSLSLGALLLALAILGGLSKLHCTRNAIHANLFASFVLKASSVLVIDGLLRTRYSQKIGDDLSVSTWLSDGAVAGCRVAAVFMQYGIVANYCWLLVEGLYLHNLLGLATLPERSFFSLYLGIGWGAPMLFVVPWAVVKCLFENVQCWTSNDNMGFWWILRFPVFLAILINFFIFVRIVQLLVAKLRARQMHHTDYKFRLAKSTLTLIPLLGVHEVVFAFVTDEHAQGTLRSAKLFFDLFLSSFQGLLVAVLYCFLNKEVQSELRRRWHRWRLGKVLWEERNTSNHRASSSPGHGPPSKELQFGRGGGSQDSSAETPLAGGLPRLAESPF
T3 sequence (P43220 24-463): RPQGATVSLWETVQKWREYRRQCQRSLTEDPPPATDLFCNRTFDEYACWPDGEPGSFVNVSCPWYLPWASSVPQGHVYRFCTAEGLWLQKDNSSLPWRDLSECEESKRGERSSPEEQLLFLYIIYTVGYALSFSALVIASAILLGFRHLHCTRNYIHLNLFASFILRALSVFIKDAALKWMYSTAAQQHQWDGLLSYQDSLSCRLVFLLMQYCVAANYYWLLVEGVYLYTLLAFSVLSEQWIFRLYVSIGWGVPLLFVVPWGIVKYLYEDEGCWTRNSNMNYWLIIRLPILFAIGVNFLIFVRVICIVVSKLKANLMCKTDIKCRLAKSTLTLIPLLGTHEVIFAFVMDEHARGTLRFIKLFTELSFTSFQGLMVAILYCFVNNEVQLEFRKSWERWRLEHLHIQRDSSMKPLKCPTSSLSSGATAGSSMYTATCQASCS

In the case of `CSCC[C@H](NC(=O)[C@H](Cc1ccc(O)cc1)NC(=O)[C@H](CC(=O)O)NC(=O)[C@H](CC(C)C)NC(=O)[C@H](CC(C)C)NC(=O)[C@H](CCCCNC(=O)COCCOCCNC(=O)COCCOCCNC(=O)CC[C@H](NC(=O)CCCCCCCCCCCCCCCCC(=O)O)C(=O)O)NC(=O)[C@H](CO)NC(=O)[C@H](Cc1ccc(O)cc1)NC(=O)[C@H](CC(=O)O)NC(=O)[C@H](CO)NC(=O)[C@@H](NC(=O)[C@H](Cc1ccccc1)NC(=O)[C@@H](NC(=O)CNC(=O)[C@H](CCC(N)=O)NC(=O)C(C)(C)NC(=O)[C@@H](N)Cc1ccc(O)cc1)[C@@H](C)O)[C@@H](C)O)C(=O)N[C@@H](CCSC)C(=O)N[C@@H](CCC(N)=O)C(=O)N[C@@H](CCC(N)=O)C(=O)N[C@@H](CC(=O)O)C(=O)N[C@@H](Cc1ccccc1)C(=O)N[C@H](C(=O)N[C@@H](CCC(N)=O)C(=O)N[C@@H](Cc1c[nH]c2ccccc12)C(=O)N[C@@H](CC(C)C)C(=O)N[C@@H](CC(C)C)C(=O)N[C@@H](CCC(=O)O)C(=O)NCC(=O)NCC(=O)N1CCC[C@H]1C(=O)N[C@@H](CO)C(=O)N[C@@H](CO)C(=O)NCC(=O)N[C@@H](C)C(=O)N1CCC[C@H]1C(=O)N1CCC[C@H]1C(=O)N1CCC[C@H]1C(=O)N[C@@H](CO)C(N)=O)C(C)C` [compound 100] (H-Y[Aib]QGTFTSDYSK([AEEA-AEEA-γGlu-C18 diacid])LLDYMMQQDFVQWLLEGGPSSGAPPPS-NH2; N-terminus assumed), at human GCGR (Table 36), the “Ratio vs. GLP-1R, GCGR” value was 56 and the “Relative % to native ligand, GCGR” value is on record as 30%. The “activity on GIPR compared to SEQ ID NO. 77, in words” value on human GIPR (Example 13) is listed as “decreased”. Moreover, on human GIPR (Table 36), the “Ratio vs. GLP-1R, GIPR” value is reported as 103 and the “Relative % to native ligand, GIPR” value was 55%. The “stability against trypsin compared with SEQ ID NO. 77, in words” value with trypsin is “increased half-lives”. The same compound registered a half-life in data set [1] of over 434 min. The same compound came in with a half-life in data set [2] (pH 6.5, Half-life (min), FaSSIF/P) of 45.2 min. Also, at human GLP-1R (Example 13), the “activity on GLP-1R compared to SEQ ID NO. 77, in words” value was “decreased”. In addition, on human GLP-1R (Table 36), the “Ratio vs. GLP-1R, GLP-1R” value was determined as 100 and the “Relative % to native ligand, GLP-1R” value is 54%.
For the compound `CSCC[C@H](NC(=O)[C@H](Cc1ccc(O)cc1)NC(=O)[C@H](CC(=O)O)NC(=O)[C@H](CC(C)C)NC(=O)[C@H](CC(C)C)NC(=O)[C@H](CCCCNC(=O)COCCOCCNC(=O)COCCOCCNC(=O)CC[C@H](NC(=O)CCCCCCCCCCCCCCCCC(=O)O)C(=O)O)NC(=O)[C@H](CO)NC(=O)[C@H](Cc1ccc(O)cc1)NC(=O)[C@H](CC(=O)O)NC(=O)[C@H](CO)NC(=O)[C@@H](NC(=O)[C@H](Cc1ccccc1)NC(=O)[C@@H](NC(=O)CNC(=O)[C@H](CCC(N)=O)NC(=O)C(C)(C)NC(=O)[C@@H](N)Cc1ccc(O)cc1)[C@@H](C)O)[C@@H](C)O)C(=O)N[C@@H](CCSC)C(=O)N[C@@H](CCC(N)=O)C(=O)N[C@@H](CCCNC(=N)N)C(=O)N[C@@H](CC(=O)O)C(=O)N[C@@H](Cc1ccccc1)C(=O)N[C@H](C(=O)N[C@@H](CCCCNC(=O)CCCC[C@@H]1SC[C@@H]2NC(=O)N[C@@H]21)C(=O)N[C@@H](Cc1c[nH]c2ccccc12)C(=O)N[C@@H](CC(C)C)C(=O)N[C@@H](CC(C)C)C(=O)N[C@@H](CCC(=O)O)C(=O)NCC(=O)NCC(=O)N1CCC[C@H]1C(=O)N[C@@H](CO)C(=O)N[C@@H](CO)C(=O)NCC(=O)N[C@@H](C)C(=O)N1CCC[C@H]1C(=O)N1CCC[C@H]1C(=O)N1CCC[C@H]1C(=O)N[C@@H](CO)C(N)=O)C(C)C` [compound 89] (H-Y[Aib]QGTFTSDYSK([AEEA-AEEA-γGlu-C18 diacid])LLDYMMQRDFVK(Biotin)WLLEGGPSSGAPPPS-NH2; N-terminus and C-terminus assumed), on human GCGR (Table 31), the “Ratio vs. GLP-1R, GCGR” value is listed as 117 and the “Relative % to native ligand, GCGR” value is 45%. Also, the “hepatic steatosis (histological score), in words” value in data set [3] is “significantly reduced”. At human GIPR (Table 31), the “Ratio vs. GLP-1R, GIPR” value was found to be 399 and the “Relative % to native ligand, GIPR” value was 154%. Also, the “intestinal stability in FaSSIF/P compared with SEQ ID NO. 77, in words” value in the data set with FaSSIF/P (Example 11) is reported as “not inferior to that of SEQ ID No. 77”. In addition, in data set [2] (pH 6.5, Table 33, peptide:pancreatin weight ratio 25:1, FaSSIF pH 6.5, 37° C., read-out: Half-life), the half-life is 43 min. Besides, the “body weight loss effect compared to SEQ ID NO. 77, in words” value in data set [4] was “comparable to SEQ ID NO. 77”. In addition, the AUC(0-inf) in data set [5] (rats, single intraduodenal (ID) administration, read-out: AUCinf) was 2790 ng·h/mL. Moreover, the Cmax in data set [5] (rats, single intraduodenal (ID) administration, read-out: mean Cmax) came out at 332 ng/mL. For the same compound, the half-life in data set [5] (rats, single intraduodenal (ID) administration, read-out: t1/2 (converted)) was 434 min. In addition, on human GLP-1R (Table 31), the “Ratio vs. GLP-1R, GLP-1R” value worked out at 100 and the “Relative % to native ligand, GLP-1R” value amounted to 38%.
On to `CSCC[C@H](NC(=O)[C@H](Cc1ccc(O)cc1)NC(=O)[C@H](CC(=O)O)NC(=O)[C@H](CC(C)C)NC(=O)[C@H](CC(C)C)NC(=O)[C@H](CCCCNC(=O)COCCOCCNC(=O)COCCOCCNC(=O)CC[C@H](NC(=O)CCCCCCCCCCCCCCCCC(=O)O)C(=O)O)NC(=O)[C@H](CO)NC(=O)[C@H](Cc1ccc(O)cc1)NC(=O)[C@H](CC(=O)O)NC(=O)[C@H](CO)NC(=O)[C@@H](NC(=O)[C@H](Cc1ccccc1)NC(=O)[C@@H](NC(=O)CNC(=O)[C@H](CCC(N)=O)NC(=O)C(C)(C)NC(=O)[C@@H](N)Cc1ccc(O)cc1)[C@@H](C)O)[C@@H](C)O)C(=O)N[C@@H](CCSC)C(=O)N[C@@H](CCC(N)=O)C(=O)N[C@@H](CCCNC(=N)N)C(=O)N[C@@H](CC(=O)O)C(=O)N[C@@H](Cc1ccccc1)C(=O)N[C@H](C(=O)N[C@@H](CCC(N)=O)C(=O)N[C@@H](Cc1c[nH]c2ccccc12)C(=O)N[C@@H](CC(C)C)C(=O)N[C@@H](CC(C)C)C(=O)N[C@@H](CCC(=O)O)C(=O)NCC(=O)NCC(=O)N1CCC[C@H]1C(=O)N[C@@H](CO)C(=O)N[C@@H](CO)C(=O)NCC(=O)N[C@@H](C)C(=O)N1CCC[C@H]1C(=O)N1CCC[C@H]1C(=O)N1CCC[C@H]1C(=O)N[C@@H](CO)C(=O)N[C@@H](CCCCNC(=O)CCCC[C@@H]1SC[C@@H]2NC(=O)N[C@@H]21)C(N)=O)C(C)C` [compound 90] (H-Y[Aib]QGTFTSDYSK([AEEA-AEEA-γGlu-C18 diacid])LLDYMMQRDFVQWLLEGGPSSGAPPPSK(Biotin)-NH2; N-terminus and C-terminus assumed), for which, on human GCGR (Table 31), the “Ratio vs. GLP-1R, GCGR” value is on record as 39 and the “Relative % to native ligand, GCGR” value amounted to 19%. Moreover, at human GIPR (Table 31), the “Ratio vs. GLP-1R, GIPR” value is recorded as 311 and the “Relative % to native ligand, GIPR” value came to 154%. Besides, the “intestinal stability in FaSSIF/P compared with SEQ ID NO. 77, in words” value in the data set on FaSSIF/P was “not inferior to that of SEQ ID No. 77”. The compound further had a half-life in data set [2] (pH 6.5, Half-life (min)) of 42.1 min. The “body weight loss effect compared to SEQ ID NO. 77, in words” value in data set [4] is reported as “comparable to SEQ ID NO. 77”. Besides, in data set [5], the AUC(0-inf) was 2490 ng·h/mL, the concentration peaked (Cmax) at 282 ng/mL, the half-life was 502 min and the “time at which Cmax was reached” value worked out at 0.30 h. At human GLP-1R (Table 31), the “Ratio vs. GLP-1R, GLP-1R” value is on record as 100 and the “Relative % to native ligand, GLP-1R” value was 50%.
